Experimental data as given in patent publication US8916686B2, “TDF-related compounds and analogs thereof” (Thrasos Innovation, Inc., priority 2004, dated 2014).

B1: BMP-7: bone morphogenetic protein-7 (OP-1, TDF-1); mature form of recombinant human BMP-7 used as positive control (protein)
chain: STGSKQRSQNRSKTPKNQEALRMANVAENSSSDQRQACKKHELYVSFRDLGWQDWIIAPEGYAAYYCEGECAFPLNSYMNATNHAIVQTLVHFINPETVPKPCCAPTQLNAISVLYFDDSSNVILKKYRNMVVRACGCH

Tests used:
[1] = test system: synovial membrane-derived mesenchymal stem cells; test: Chondrogenic differentiation, extracellular matrix deposition by alcian blue staining; assay type: cell-based
Description: Influence of compounds SEQ ID NO 16, 33, 45, 217, 221 on chondrogenic differentiation of synovial membrane-derived mesenchymal stem cells leading to increased extracellular matrix deposition as determined by alcian blue staining. SEQ ID NO:16, 33, 45, 217, and 221 correspond to Compounds E, A, C, B, and D, respectively.
TDFRP compounds can be used to in the prophylaxis or treatment of diseases of the oral cavity, e.g., by affecting direct capping of bioactive molecules, or inducing the formation of reparative dentin and coronal or radicular pulp mineralization (Goldberg et al., Am J. Dent. 2003 February; 16(1):66-76). Further, TDFRP can be used in the prophylaxis or treatment of periodontal disease. […] TDFRP compounds can be used in the prophylaxis or treatment of traumatic brain injury, e.g., stroke, see, e.g., Cairns and Finkelstein, Phys Med Rehabil Clin N Am. 2003 February; 14(1 Suppl):S135-42). Intravenous administration of BMP-7 after ischemia improves motor function in stroke rats (Chang et al., Stroke. 2003 February; 34(2):558-64) and the TDFRP compounds may protect against or repair reperfusion injury. […] Thrasos compounds that bind to ALK3, a type I receptor for BMP, are therefore analyzed to examine if they induce chondrogenic differentiation leading to extra cellular matrix deposition in synovial membrane-derived mesenchymal stem cells. […]

[2] = test system: rat osteosarcoma (17/2.8) cells; test: Rat osteosarcoma (ROS) cell-based alkaline phosphatase assay; settings: 0.02-200 uM, 2 days; relative to BMP-7 standard
Method: BMP interactions with Type I and Type II receptors can induce alkaline phosphatase activity, a marker for osteoblast activity, in ROS cells. An assay procedure as described earlier (Maliakal, J.C., Asahina, I., Hauschka, P. V., and Sampath, T. K. (1994) Growth factors 11, 227-234) was used to determine the biological activities of TDFRP compounds. In a typical experiment, rat osteosarcoma (17/2.8) cells are plated in 96 well plates (3.0×10^4 cells/well) and incubated overnight at 37 C in 5-6% CO2 incubator. The next day, healthy and confluent cells are treated with increasing concentrations of BMP-7 standard (1-10,000 ng/ml) served as positive control or TDFRP compounds (0.02-200 uM) prepared in medium containing 1% FBS and incubated for 2 days at 37 C in 5-6% CO2 incubator. The cellular content of alkaline phosphatase activity is determined by the method of Reddi and Huggins (Reddi, A. H., and Huggins, C. B (1972) Proc. Natl. Acad. Sci. USA 69, 1601-1605). Enzyme estimations are performed in 96 well plates. Following removal of culture medium, cells are washed with pre-warmed PBS (150 ul) and incubated in 100 ul of pre-warmed 1% Triton X-100 for 30 minutes at 37 C. Plates are centrifuged for 10 minutes at full speed, and recovered samples (15 ul) are assayed for enzyme activity by adding 90 ul p-nitrophenyl phosphate (Sigma) as a substrate in 0.05 M glycine-NaOH buffer, pH 9.3 and incubating for 20 minutes at 37 C. The reaction is stopped by adding 75 ul of 0.2 N NaOH/well and absorbance at 405/490 nm is measured on a Dynatech MR 700 plate reader. Results are expressed as relative activities compared to a BMP-7 standard.

[3] = test system: rat after ligation of the coronary artery; test: LAD occlusion model of myocardial injury (ischemia/reperfusion); assay type: in vivo; settings: day 7; compound 10 mg/kg i.v., rhmBMP-7 160 μg/kg i.v.
Method: The efficacy of compound SEQ ID #45 in ameliorating the effects of myocardial ischemia was investigated in the rat after ligation of the coronary artery. […] unmanipulated rats, sorted into two large groups by initial body weight (>300 g pre-surgery) were evaluated. Fourteen rats underwent surgery on week, 12 rats underwent surgery on week 2 and rats were sorted into 3 treatment groups: Group 1, PBS; Group 2, positive control TDF-1; Group 3, test article SEQ ID #45 (see Table X).
Three days prior to surgery, a serum sample was collected from the tail vein of each rat (pre-bleed). On the day of surgery, each rat was administered compound intravenously 2 hr prior to surgery. Surgery was performed sequentially after intubation and ventilation with 0.5% isofluorane anesthetic. Lead II ECG was monitored throughout the surgery. A thoracotomy was performed and the main left coronary artery was occluded for 20 min using a snare technique (FIG. 16). Successful occlusion of the artery was confirmed by ST elevation in lead II ECG within the first 5 minutes of ligation, and by frequent ventricular arrhythmia after 10 minutes of ligation. The snare was released to restore blood flow. The original suture loop was left in place for subsequent re-occlusion on Day 7. After initiation of reperfusion, the chest cavity was closed with 2 layers of suture. Rats were weaned from the ventilator and observed until fully conscious and mobile. Antibiotic (QD) and analgesic (Q8D) were provided. Additional serum samples were collected 6, 24, 72 and 120 hours post occlusion. Additional compound, positive control or vehicle treatments were delivered by intravenous injection in the tail vein at 24, 72 and 120 hours post occlusion.
On Day 7, each rat was anesthetized (ketamine:xyline), the chest cavity re-opened and a terminal blood sample (1 ml) was withdrawn from the abdominal vein. Gross pathology (i.e. inflammation) was noted and graded on a 4 point inflammation scale: 0=no inflammation, 1=slight, 2=moderate, 3=severe and 4=complete pericarditis. The left coronary artery was then re-occluded using the existing stitch and a concentrated solution of Evans Blue dye in saline (20 mg/ml; 0.5 ml/rat) was injected into the heart apex to stain the non-ischemic cardiac tissue blue. The heart was then arrested by injection of a saturated solution of potassium chloride into the right ventricle. The heart was then excised, wrapped in cellophane and stored at −20° C. for 1.5 hour. The cold heart was cut into 10 cross-sectional slices (2 mm/slice) and each section was numbered and incubated separately in triphenyltetrazolium chloride (1% TTC in PBS) for 10 minutes at 37° C. prior to fixing in 4% formaldehyde. Subsequently, each slice was photographed. For each slice, the “area at risk (AR)” and the “area occupied by necrosis (AN)” were measured by morphometry. The ratio of AN to AR is a measure of the degree of damage resulting from the occlusion (FIG. 17A-FIG. 17B).

[4] = test system: mouse model of nephrotoxic serum nephritis; settings: cited from earlier work
[5] = test system: TGF-beta1 induced EMT in epithelial cells; settings: 100 ng/ml for 48 hours; cited from earlier work

| Molecule | deposition of the extracellular matrix [1] | induction of alkaline phosphatase activity [2] | other results |
| --- | --- | --- | --- |
| CIVNSSDDFLCKKYRS [SEQ ID NO 16] | significantly increased the deposition of the extracellular matrix |  |  |
| CYFDDSSKVICKKYRS [SEQ ID NO 130] |  | did not induce alkaline phosphatase activity |  |
| CYFDDSSQVLCKKYRS [SEQ ID NO 65] |  | did not induce alkaline phosphatase activity |  |
| CYFNDSSQVLCKRYRS [SEQ ID NO 221] | significantly increased the deposition of the extracellular matrix | did not induce alkaline phosphatase activity |  |
| B1 |  |  | reduction in AN/AR ratio as compared to PBS-treated animals [3]: 7%; progression to chronic renal disease ([4]; about 300 micrograms/kg, starting after one week of NTN): sufficient to prevent progression to chronic renal disease; renal pathology ([4]; treatment from week 3 through week 6 and from week 4 through week 6): almost completely reversed renal pathology; reversal of TGF-beta1 induced EMT [5]: reverses TGF-beta1 induced EMT |
